Reference: US20200360331A1, “COMPOSITIONS COMPRISING 15-HEPE AND/OR 15-HETrE AND METHODS OF TREATING OR PREVENTING CARDIOMETABOLIC DISEASE, METABOLIC SYNDROME, AND/OR RELATED DISEASES” (Afimmune Limited, priority 2019, published 2020)
Entries after “also recorded” stand apart in the source; their conditions may differ.

Key:
[1] = system: TGF-β induced epithelial mesenchymal transition (EMT) protein production; experiment: TGF-β induced EMT protein production in HepG2 cells; type: cell-based, human; details: increasing doses for 1 hour, then 200 pM TGF-β for 48 hours
Method: The effects of 15-HEPE on TGF-β-induced signaling and cellular responses were determined. To test the effect of 15-HEPE on TGF-β-induced signaling, the activities of 15-HEPE to regulate TGF-β-stimulated Smad2 phosphorylation and nuclear translocation, both of which are key signaling events leading to TGF-β-induced cellular responses, were tested. One important biological activity of TGF-β is transcriptional activation of genes responsible for epithelial-mesenchymal transition (EMT), which is a crucial event in wound healing, tissue fibrosis, and cancer progression. The effect of 15-HEPE on TGFβ-induced epithelial mesenchymal transition related proteins (such as fibronectin, PAI-1, and N-cadherin etc.) expression in HepG2 and […] cells were assessed. HepG2 cells (human hepatoma cell line) were treated in increasing doses of 15-HEPE stage II in DMEM containing 0.1% of FBS for 1 hour and continually stimulated with or without 200 picomolar (pM) of TGF-β for 48 hours.
HepG2 cells (human hepatoma cell line) were treated in increasing doses of 15-HEPE stage II in DMEM containing 0.1% of FBS for 1 hour and continually stimulated with or without 200 picomolar (pM) of TGF-β for 48 hours. The two panels shown in FIG. 18A are two separate experiments run under the same experimental conditions.

[2] = system: TβR-II (type II TGF-β receptor); experiment: Sucrose density gradient analysis in Mv1Lu cells, TβR-II; type: cell-based, mink; details: summary, free acid or ethyl ester form
Method: Sucrose gradient ultracentrifugation and confocal microscopy were used to identify 15-HEPE induced microdomain translocation of TGF-β receptors by sucrose. Sucrose density gradient analysis of TGF-β receptors was conducted in the plasma membranes of Mv1Lu cells (mink lung epithelial cell) treated with 100 μM of 15-HEPE and an equal volume of DMSO (dimethyl sulfoxide) at 37° C. for 0, 1, 4, and 24 hours, and the cell lysates from these treated cells were subjected to sucrose density gradient ultracentrifugation. The sucrose gradient fractions were then analyzed by Western blot analysis using anti-TβR-I (type I TGF-β receptor), anti-TβR-II (type II TGF-β receptor), anti-TβR-III (type III TGF-β receptor, betaglycan), anti-EGFR (epidermal growth factor receptor), and anti-caveolin-1 antibodies. The lipid raft/caveolae, and non-lipid raft microdomain localization of TβR-I, TβR-II, TβR-III, EGFR and caveolin-1 in the plasma membrane of untreated cells or cells treated with 15-HEPE were assessed to determine the effects of 15-HEPE on the membrane microdomain localization of the TGF-β receptors.
A 15-HEPE sucrose density gradient analysis of TGF-β receptors was conducted in the plasma membranes of mink lung epithelial cell (Mv1 Lu) cells treated with 100 μM of 15-HEPE and an equal volume of dimethyl sulfoxide (DMSO) at 37° C. for 0, 1, 4, and 24 hours, and the cell lysates from these treated cells were subjected to sucrose density gradient ultracentrifugation. The sucrose gradient fractions were then analyzed by Western blot analysis using anti-TβR-I (type I TGF-β receptor—FIG. 18C), anti-TβR-II (type II TGF-β receptor—FIG. 18D), anti-TβR-III (type III TGF-β receptor, betaglycan—FIG. 18E), anti-EGFR (epidermal growth factor receptor—FIG. 18F), and anti-caveolin-1 antibodies (FIG. 18G). Fractions 4 to 5 contained lipid rafts/caveolae whereas fractions 7-10 were non-lipid raft fractions. […] Stars (★) indicate 15-HEPE increased abundance of TβR-I (24 hours) in the fraction in comparison with that of the control and shorter treatment durations (FIG. 18C). […] The triangles (▾) indicate translocation and decreased abundance of TβR-II in the fraction in comparison with control cells (FIG. 18D).

[3] = system: TGF-β-stimulated intracellular signaling (SMAD2/3 phosphorylation); experiment: TGF-β-stimulated SMAD2/3 phosphorylation in LX2 liver stellate cells; type: cell-based, human; details: 0 μM to 100 μM for 24 hours, then 30 min TGF-β stimulation
UUO mice [4] = experiment: UUO study: Sirius red staining of kidney sections, fibrosis area; type: in vivo, C57BL/6 mice; details: for Sirius red-positive area: kidney
Method: (§1) UUO Surgery: On day 0 of the study, UUO surgery was performed on mice under pentobarbital sodium anesthesia. The mouse's hair was first shaved and then abdomen cut open to exteriorize the mouse's left ureter. The ureter was ligated 4-0 nylon sutures at two points. The mouse's peritoneum and skin were then closed with sutures, and the mouse transferred to a clean cage until recovered from the anesthesia. Sham operated mice had their left ureter exposed but not ligated.
Histopathological analysis: To visualize collagen deposition, kidney sections were stained using picro-Sirius red solution (Waldeck, Germany). For quantification of interstitial fibrosis area, bright field images in the corticomedullary region were captured using a digital camera (e.g., DFC295; Leica Microsystems, Germany) at 200-fold magnification, and the positive areas in 5 fields/section were measured using ImageJ software (National Institute of Health, USA).

UUO mice [5] = experiment: UUO study: kidney hydroxyproline content; type: in vivo, C57BL/6 mice
Method: as §1
Measurement of Kidney Biochemistry: To quantify kidney hydroxyproline content, frozen left kidney samples were processed by an alkaline-acid hydrolysis method as follows: kidney samples were dissolved in 2 normal (N) sodium hydroxide (NaOH) at 65° C. and autoclaved at 121° C. for 20 minutes. The lysed samples (400 μL) were acid-hydrolyzed with 400 μL of 6N hydrochloride acid (HCl) at 121° C. for 20 minutes, and neutralized with 400 μL of 4N NaOH containing 10 mg/mL of activated carbon. An AC buffer (e.g., 2.2M acetic acid/0.48M citric acid, 400 μL) was added to the samples, followed by centrifugation to collect the supernatant. A standard curve of hydroxyproline was constructed with serial dilutions of trans-4-hydroxy-L-proline (Sigma-Aldrich, USA) starting at 16 μg/mL. The prepared samples and standards (e.g., each 400 μL) were mixed with 400 μL chloramine T solution (Wako Pure Chemical Industries, Japan) and incubated for 25 minutes at room temperature. The samples were then mixed with Ehrlich's solution (e.g., 400 μL) and heated at 65° C. for 20 minutes to develop the color. After samples were cooled on ice and centrifuged to remove precipitates, the optical density of each supernatant was measured at 560 nanometers (nm). The concentrations of hydroxyproline were calculated from the hydroxyproline standard curve. Protein concentrations of kidney samples were determined using a bicinchoninic (BCA) protein assay kit (Thermo Fisher Scientific, USA) and used to normalize the calculated hydroxyproline values. Kidney hydroxyproline contents were expressed as microgram (μg) per mg protein.

[6] = UUO study: body weight, kidney weight, general condition; type: in vivo; details: UUO mice
Method: UUO Surgery: On day 0 of the study, UUO surgery was performed on mice under pentobarbital sodium anesthesia. The mouse's hair was first shaved and then abdomen cut open to exteriorize the mouse's left ureter. The ureter was ligated 4-0 nylon sutures at two points. The mouse's peritoneum and skin were then closed with sutures, and the mouse transferred to a clean cage until recovered from the anesthesia. Sham operated mice had their left ureter exposed but not ligated. […]
Animals: Seven-week-old female C57BL/6 mice (i.e., animals) were obtained from Japan SLC, Inc. (Japan) and were housed and fed with a normal diet (CE-2; CLEA Japan, Japan) under controlled conditions. The animals were maintained in a specific-pathogen free (SPF) facility under controlled conditions of temperature (e.g., 23±2° C.), humidity (e.g., 45±10%), lighting (e.g., 12-hour artificial light and dark cycles; light from 8:00 to 20:00) and air exchange. A high pressure was maintained in the experimental room to prevent contamination of the facility. The animals were housed in TPX cages (CLEA Japan) with a maximum of 4 mice per cage. Sterilized Paper-Clean (Japan SLC) was used for bedding and replaced once a week. Sterilized solid normal diet was provided ad libitum, being placed in a metal lid on the top of the cage. Pure water was also provided ad libitum from a water bottle equipped with a rubber stopper and a sipper tube. Water bottles were replaced once a week, cleaned, and sterilized in an autoclave and reused. Mice were identified by ear punch and each cage was labeled with a specific identification code.
Animal Monitoring and Sacrifice: The viability, clinical signs and behavior for the mice were monitored daily. Individual body weight was measured daily before treatment during the treatment period. […] The animals were sacrificed by exsanguination through direct cardiac puncture under isoflurane anesthesia (Pfizer Inc.) at Day 14.

[7] = 50 mg/kg PO QD Day 0-13, Day 14
[8] = 250 mg/kg PO QD Day 0-13, Day 14

Compound | TGF-β induced EMT (pro-fibrotic) protein production [1] | translocation and degradation of type II TGF-β receptors [2] | TGF-β-stimulated intracellular signaling (SMAD2/3 phosphorylation) [3] | fibrosis area compared with the Vehicle group (UUO mice [4]; 5 mg/kg, Mann-Whitney U test (p<0.1)) | fibrosis area compared with the Vehicle group (UUO mice [4]; 50 mg/kg, Bonferroni Multiple Comparison) | fibrosis area compared with the Vehicle group (UUO mice [4]; 50 mg/kg, Mann-Whitney U test (p<0.1)) | fibrosis area compared with the Vehicle group (UUO mice [4]; 250 mg/kg, Mann-Whitney U test (p<0.1)) | Sirius red-positive area (UUO mice [4]; 5 mg/kg PO QD Day 0-13, Day 14) | Sirius red-positive area (UUO mice [4]; [7]) | Sirius red-positive area (UUO mice [4]; [8]) | kidney hydroxyproline contents compared with the Vehicle group (UUO mice [5]; 5 mg/kg) | Kidney hydroxyproline (UUO mice [5]; 5 mg/kg PO QD Day 0-13, Day 14) | kidney hydroxyproline contents compared with the Vehicle group (UUO mice [5]; 50 mg/kg) | Kidney hydroxyproline (UUO mice [5]; [7]) | kidney hydroxyproline contents compared with the Vehicle group (UUO mice [5]; 250 mg/kg) | Kidney hydroxyproline (UUO mice [5]; [8]) | Body Weight ([6]; 5 mg/kg PO QD Day 0-13, Day 14) | Body Weight [6, 7] | Body Weight [6, 8]
CCC=CCC(O)C=CC=CCC=CCC=CCCCC(=O)OCC (stereo not shown) [15-HEPE EE] | blocked TGF-β induced pro-fibrotic protein production | induced translocation and degradation of type II TGF-β receptors | inhibited TGF-β induced intracellular signaling (SMAD2/3) | – | – | – | – | – | – | – | – | – | – | – | – | – | – | – | –
CCCCCC(O)/C=C/C=C\C/C=C\CCCCCCC(=O)O (stereo not shown) [DS109, 15-hydroxy-eicosa-8Z,11Z,13E-trienoic acid] | – | – | – | tended to decrease; also recorded: reduction trend | tended to decrease | tended to decrease; also recorded: reduction trend | tended to decrease; also recorded: reduction trend | 4.23 ± 1.90% | 3.58 ± 1.04% | 4.71 ± 0.96% | significant decreases | 9.94 ± 2.02 μg/mg total protein | no significant difference | 13.94 ± 6.44 μg/mg total protein | significant decreases | 8.30 ± 1.04 μg/mg total protein | 19.1 ± 0.9 g | 18.6 ± 0.6 g | 18.6 ± 0.7 g
